Laboratory results as given in patent US20060160784A1, “Method for treating neurologic diseases” (priority 2005, published 2006).
Where “and” joins values, the source holds several entries; their conditions need not be identical. Identical values can stand only once.

Tested on: G93A transgenic mice
Assay: Survival of G93A murine ALS model mice treated with MGd from symptom onset
Assay type: in vivo
Conditions: for survival interval (survival data used for plot B), individual animals: one value per mouse, unit days
Source text: (§1) Transgenic mice which overexpress the G93A human Cu, Zn superoxide dismutase (SOD 1) mutant develop motor paralysis similar to amyotrophic lateral sclerosis (ALS) in humans. At 90-100 days of age, these mice develop hindlimb weakness which rapidly progresses to total body paralysis within 2-3 weeks. Such trangenic mice were used to evaluate the survival and neuroprotective action of MGd with G93A transgenic mice. In particular, the purpose of this study was to test the effect of MGd (administered at a loading dose of 5 mg/kg and a maintenance dose of 2.5 mg/kg/day i.p. thereafter).
Studies involved the use of G93A overexpressing mice purchased directly from JAX Labs. Due to the high variability in age of onset (of motor neuron disease or MND) and total survival, a mouse colony was bred using the JAX Labs protocols. […] Therefore, littermate males were chosen to sire subsequent offspring and used to produce 10-12 litters of age-matched mice for drug studies. Typically 50-60 transgenic mice were obtained from 10-12 litters and, within these groups, the variability in age of onset and survival was quite low.
(§2) The procedure used involved monitoring the transgenic mice from several litters for onset of symptoms of motor neuron degeneration. At symptom onset (muscle weakness), mice were randomly assigned sequentially to either Control (no treatment) or Treatment (MGd-treated) groups. Mice were sacrificed when moribund (unable to assume upright posture), as required by animal welfare protocol. Motexafin gadolinium formulated at 2 mM (2.3 mg/ml) in 5% aqueous mannitol was used for this study and the study group involved 10-11 animals in each group, 21 animals total.
At the onset of symptoms MGd was administered via i.p injection at a loading dose of 5 mg/kg and a maintenance dose of 2.5 mg/kg/day i.p injection. was administered thereafter.
as §1, with “(SOD1)” for “(SOD 1)”, “a” for “a loading”, “1” for “5 mg/kg and a maintenance dose of 2.5”, “i.p.).” for “i.p. thereafter).”
as §2, with “9” for “10-11”, “18” for “21”
At the onset of symptoms MGd was administered via i.p injection at a dose of 1 mg/kg/day.
as §1, with “a” for “a loading dose of 5 mg/kg and a maintenance”, “mg/kg/q.2d. and 2.5 mg/kg/q.4d. i.p.).” for “mg/kg/day i.p. thereafter).”
as §2, with “Motexafin gadolinium formulated at 2 mM (2.3 mg/ml) in 5% aqueous mannitol was used for this study and the study group involved 10-11 animals in each group, 21 animals total.” left out

For CC(=O)[O-].CC(=O)[O-].CCc1c(CC)c2cc3nc(cnc4cc(OCCOCCOCCOC)c(OCCOCCOCCOC)cc4ncc4nc(cc1[n-]2)C(CCCO)=C4C)C(C)=C3CCCO.O.[Gd+3] [MGd, Motexafin Gadolinium], the “extension of mean survival over untreated control mice” value (Example 10, loading dose 5 mg/kg i.p., then 2.5 mg/kg/day i.p.) was “roughly 2.7 fold”, the “survival interval (survival data used for plot B), individual animals” value (“survival interval” for short) (Example 10, loading dose 5 mg/kg i.p., then 2.5 mg/kg/day i.p. from symptom onset) was 53 days and 54 days and 26 days and 23 days and 21 days and 20 days and 46 days and 55 days and 36 days and 32 days and the mean survival (Example 10, loading dose 5 mg/kg i.p., then 2.5 mg/kg/day i.p., untreated control 13.4 days, p=4×10^−5) was 36.6 days. The “extension of mean survival over untreated control mice” value (Example 11, 1 mg/kg/day i.p.) was “roughly 2.5 fold”, the “survival interval” value (Example 11, 1 mg/kg/day i.p. from symptom onset, 1 mg/kg/day) was 48 days and 41 days (2×) and 35 days (2×) and 49 days and 39 days and 52 days and 54 days and the mean survival (Example 11, 1 mg/kg/day i.p., untreated control 17.2 days, p<1×10^−5) was 43.8 days. The “extension of survival over untreated control mice” value (Example 12, 2.5 mg/kg/q.2d. i.p.) was “roughly 1.3 fold”, the “survival interval” value (Example 12, 2.5 mg/kg/q.2d. i.p. from symptom onset, 2.5 mg/kg) was 20 days and 37 days and 35 days and 30 days and 28 days (2×) and the mean survival (Example 12, 2.5 mg/kg/q.2d. i.p., untreated control 23 days, p=0.069) was 30 days. The “extension of survival over untreated control mice” value (Example 12, 2.5 mg/kg/q.4d. i.p.) was ~1.4 fold, the “survival interval” value (Example 12, 2.5 mg/kg/q.4d. i.p. from symptom onset, 2.5 mg/kg) was 30 days and 38 days and 20 days and 35 days and 26 days and 47 days and the mean survival (Example 12, 2.5 mg/kg/q.4d. i.p., untreated control 23 days, p=0.068) was 33 days.
